Measured values as given in patent publication US20080194585A1, “Fungicidal Pyrazine Derivatives” (priority 2005, published 2008).
Marks after values point to notes of the source that are not given here.

Legend:
Conditions in all cases: 100 = 100% disease control, 0 = no control
[1] = test system: Puccinia recondita f. sp. tritici; test: Test K: wheat leaf rust, preventive spray on wheat seedlings
[2] = test system: Erysiphe graminis f. sp. tritici; test: Test L: wheat powdery mildew, preventive spray on wheat seedlings
fusarium graminearium = test: Test I: wheat head scab, preventive spray on wheat seedlings
Procedure: (the causal agent of wheat head scab) and incubated in a saturated atmosphere at 20° C. for 72 h, and then moved to a growth chamber at 22° C. for 5 days, after which disease ratings were made.

Phytophthora infestans = test: whole plant or invertebrate; type: in vivo
Septoria tritici = test: Test J: wheat leaf blotch, preventive spray on wheat seedlings; type: in vivo
From the text: A dash (-) indicates no test results.

Septoria nodorum = test: Test H: wheat glum blotch, preventive spray on wheat seedlings
Procedure: (the causal agent of wheat glum blotch) and incubated in a saturated atmosphere at 20° C. for 48 h, and then moved to a growth chamber at 22° C. for 5 days, after which disease ratings were made.

[3] = test system: Colletotrichum orbiculare; test: Test B: cucumber Colletotrichum anthracnose, preventive spray on cucumber seedlings
Plasmopara viticola = test: Test D: grape downy mildew, spray after inoculation of grape seedlings; type: in vivo
From the text: Upon removal, disease ratings were made. […] A dash (-) indicates no test results.

Rhizoctonia oryzae = test: Test G: turf brown patch, preventive spray on creeping bent grass seedlings
Procedure: (the causal agent of turf brown patch) and incubated in a saturated atmosphere at 27° C. for 24 h, and then moved to a growth chamber at 27° C. for 5 days, after which disease ratings were made.

Botrytis cinerea = test: Test E: tomato botrytis, preventive spray on tomato seedlings
Pythium aphanidermatum = test: Test A: bluegrass pythium blight, preventive spray on bluegrass seedlings
Sclerotinia sclerotiorum = test: Test C: cucumber white mold, preventive spray on cucumber seedlings

SMILES	Test K disease control rating ([1]; 40 ppm (marked *))	Test L disease control rating ([2]; 40 ppm (marked *))	Test I disease control rating (fusarium graminearium; 40 ppm (marked *))	Test F disease control rating (Phytophthora infestans; 40 ppm (marked *))	Test J disease control rating (Septoria tritici; 40 ppm (marked *))	Test H disease control rating (Septoria nodorum; 40 ppm (marked *))	Test B disease control rating ([3]; 40 ppm (marked *))	Test D disease control rating (Plasmopara viticola; 40 ppm (marked *))	Test G disease control rating (Rhizoctonia oryzae; 40 ppm (marked *))	Test E disease control rating (Botrytis cinerea; 40 ppm (marked *))	Test A disease control rating (Pythium aphanidermatum; 40 ppm (marked *))	Test C disease control rating (Sclerotinia sclerotiorum; 40 ppm (marked *))	Test K disease control rating ([1]; 200 ppm)	Test L disease control rating ([2]; 200 ppm)	Test I disease control rating (fusarium graminearium; 200 ppm)	Test F disease control rating (Phytophthora infestans; 200 ppm)	Test H disease control rating (Septoria nodorum; 200 ppm)	Test B disease control rating ([3]; 200 ppm)	Test D disease control rating (Plasmopara viticola; 200 ppm)	Test G disease control rating (Rhizoctonia oryzae; 200 ppm)	further results
O=c1c(-n2cncn2)nc(Cl)c(-c2c(F)cccc2F)n1Cc1cccc(Cl)c1 [compound 276]	94* %	0* %	0* %	0* %	100* %	78* %	0* %	0* %	0* %	98* %	0* %	0* %	–	–	–	–	–	–	–	–	–
N#Cc1nc(Cl)c(-c2c(F)cccc2F)n(Cc2cccc(Cl)c2)c1=O [compound 277]	41* %	0* %	0* %	0* %	63* %	0* %	0* %	0* %	0* %	0* %	0* %	0* %	–	–	–	–	–	–	–	–	–
Cc1ccn(-c2nc(Cl)c(-c3c(F)cccc3F)n(-c3ccccc3)c2=O)n1 [compound 278]	100* %	99* %	0* %	0* %	100* %	100* %	88* %	31* %	92* %	100* %	0* %	0* %	–	–	–	–	–	–	–	–	–
Cc1ccn(-c2nc(Cl)c(-c3c(F)cccc3F)n(Cc3ccccc3)c2=O)n1 [compound 279]	100* %	99* %	0* %	0* %	100* %	98* %	78* %	0* %	41* %	99* %	0* %	0* %	–	–	–	–	–	–	–	–	–
Cc1ccn(-c2nc(Cl)c(-c3c(F)cccc3F)n(Cc3ccccc3F)c2=O)n1 [compound 280]	98* %	69* %	0* %	0* %	100* %	96* %	57* %	0* %	0* %	99* %	0* %	0* %	–	–	–	–	–	–	–	–	–
CC[C@H](C)Cn1c(-c2ccc(F)cc2Cl)c(Br)nc(-n2cccn2)c1=O [compound 281]	100* %	100* %	0* %	0* %	100* %	100* %	100* %	0* %	47* %	100* %	0* %	0* %	–	–	–	–	–	–	–	–	–
CC[C@H](C)Cn1c(-c2ccc(F)cc2Cl)c(Br)nc(-n2ccc(C)n2)c1=O [compound 282]	100* %	100* %	0* %	0* %	100* %	99* %	100* %	0* %	0* %	100* %	0* %	0* %	–	–	–	–	–	–	–	–	–
CC[C@H](C)Cn1c(-c2ccc(F)cc2Cl)c(Br)nc(N2CCC=N2)c1=O [compound 283]	96* %	97* %	0* %	47* %	100* %	0* %	94* %	0* %	0* %	98* %	0* %	0* %	–	–	–	–	–	–	–	–	–
CCCCn1c(-c2ccc(F)cc2Cl)c(Br)nc(-n2cccn2)c1=O [compound 284]	95* %	96* %	0* %	16* %	100* %	99* %	0* %	0* %	0* %	94* %	0* %	0* %	–	–	–	–	–	–	–	–	–
CCCCn1c(-c2ccc(F)cc2Cl)c(Br)nc(-n2ccc(C)n2)c1=O [compound 285]	89* %	92* %	0* %	0* %	100* %	85* %	0* %	0* %	0* %	99* %	0* %	0* %	–	–	–	–	–	–	–	–	–
O=c1c(-n2cccn2)nc(Cl)c(-c2ccccc2Cl)n1Cc1ccccc1 [compound 288]	–	–	–	–	100* %	–	–	–	–	–	–	–	91%	91%	0%	0%	100%	91%	0%	0%	Test E disease control rating (Botrytis cinerea; 200 ppm): 100%; Test A disease control rating (Pythium aphanidermatum; 200 ppm): 0%; Test C disease control rating (Sclerotinia sclerotiorum; 200 ppm): 0%
Cc1ccn(-c2nc(Cl)c(C(C)C)n(CC(C)C)c2=O)n1 [compound 289]	–	–	–	–	–	–	–	–	–	–	–	–	100%	79%	0%	57%	0%	0%	0%	95%	Test J disease control rating (Septoria tritici; 200 ppm): 96%; Test E disease control rating (Botrytis cinerea; 200 ppm): 100%; Test A disease control rating (Pythium aphanidermatum; 200 ppm): 0%; Test C disease control rating (Sclerotinia sclerotiorum; 200 ppm): 0%
CC(C)Cn1c(C2CCCC2)c(Cl)nc(-n2cccn2)c1=O [compound 290]	–	–	–	–	–	–	–	–	–	–	–	–	100%	99%	0%	0%	0%	0%	0%	77%	Test J disease control rating (Septoria tritici; 200 ppm): 100%; Test E disease control rating (Botrytis cinerea; 200 ppm): 100%; Test A disease control rating (Pythium aphanidermatum; 200 ppm): 0%; Test C disease control rating (Sclerotinia sclerotiorum; 200 ppm): 0%
CC(C)Cn1c(C2CCCCC2)c(Cl)nc(-n2cccn2)c1=O [compound 291]	–	–	–	–	–	–	–	–	–	–	–	–	88%	71%	0%	0%	0%	0%	33%	0%	Test J disease control rating (Septoria tritici; 200 ppm): 100%; Test E disease control rating (Botrytis cinerea; 200 ppm): 97%; Test A disease control rating (Pythium aphanidermatum; 200 ppm): 0%; Test C disease control rating (Sclerotinia sclerotiorum; 200 ppm): 0%
CC(C)Cc1c(Cl)nc(-n2cccn2)c(=O)n1CC(C)C [compound 292]	–	–	–	–	–	–	–	–	–	–	–	–	27%	74%	0%	0%	0%	0%	0%	0%	Test J disease control rating (Septoria tritici; 200 ppm): 38%; Test E disease control rating (Botrytis cinerea; 200 ppm): 0%; Test A disease control rating (Pythium aphanidermatum; 200 ppm): 0%; Test C disease control rating (Sclerotinia sclerotiorum; 200 ppm): 0%
Cc1ccn(-c2nc(Cl)c(C3CCCC3)n(CC(C)C)c2=O)n1 [compound 293]	–	–	–	–	–	–	–	–	–	–	–	–	88%	0%	0%	0%	0%	0%	0%	0%	Test J disease control rating (Septoria tritici; 200 ppm): 97%; Test E disease control rating (Botrytis cinerea; 200 ppm): 95%; Test A disease control rating (Pythium aphanidermatum; 200 ppm): 0%; Test C disease control rating (Sclerotinia sclerotiorum; 200 ppm): 0%
